Patent publication US7319101B2, “COMT inhibitors for the treatment of depression and impaired cognition” (Hoffmann-La Roche Inc., priority 2003, dated 2008)

Biological target: T1, catechol-O-methyltransferase (COMT) obtained from rat liver (Rattus norvegicus, UniProt P22734)
T1 construct: from tissue; host or cells: rat liver homogenate
T1 sequence (P22734 1-264): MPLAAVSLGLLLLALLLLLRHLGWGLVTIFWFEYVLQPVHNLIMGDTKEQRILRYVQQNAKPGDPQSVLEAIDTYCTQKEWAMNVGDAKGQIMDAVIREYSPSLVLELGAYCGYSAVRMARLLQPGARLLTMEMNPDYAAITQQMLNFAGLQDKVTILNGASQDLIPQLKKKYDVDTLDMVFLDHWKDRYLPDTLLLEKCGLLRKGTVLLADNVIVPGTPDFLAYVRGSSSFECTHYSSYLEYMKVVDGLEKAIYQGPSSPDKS
Test: COMT inhibition, radiochemical assay with rat liver homogenate (Zürcher et al.)
Assay type: biochemical
Conditions: rat liver tissue extract; substrate benzene-1,2-diol 2.5 mM, [3H]SAM 183 μM; 15 min preincubation at 37° C., pH 7.6
Procedure: The inhibitory activity can be determined in vitro with COMT obtained from rat liver. Rat liver homogenate is incubated in the presence of a suitable substrate as described by Zürcher et al. in J. Neurochem. 1982, 38, 191-195 and the COMT activity is measured.
IC50 values were determined as follows: The inhibitors were dissolved in Me2SO as 1.2 mM stock solution and further diluted with Me2SO. The reactions were performed in standard polypropylene vials. 25 μl of the inhibitor in varying concentrations from 10^−4 to 10^−9 mol L^−1 were mixed with 215 μl freshly prepared buffer-substrate mixture consisting of 170 μl potassium phosphate buffer (0.1 mol L^−1, pH 7.6), 10 μl MgCl2, (0.1 mol L^−1), 10 μl dithiothreitol (0.065 mol L^−1) and 25 μl of tissue extract. The enzyme preparations were preincubated for 15 min at 37° C. The reaction was started by adding 30 μl substrate (benzene-1,2-diol, 0.025 mol L^−1), 10 μl [^3H]SAM (5.5 mmol L^−1, specific activity: 13.36 Bq mol^−1 (3.61 Cimol^−1) and 20 μl deionized H2O, reaching a final substrate concentration of 2.5 mM and a final [^1H]/[^3H]SAM concentration of 183 μM. The reaction was stopped after incubating the vials in a water-bath at 37° C. for 15 min by addition of 200 μl HOAc (5.7%) containing guaiacol (0.1 g L^−1). The reaction vessels were transferred into polyethylene scintillation vials and 3 ml of scintillation fluid (5 g butyl-PBD, dissolved in 200 ml toluene, made up to 1 L with n-hexane) was added.
The samples were counted in a Beckmann LS 6000 TA scintillation counter.

Row | IC50 [nM] | Structure (SMILES)
1 | 2600 | Nc1ncnc2c1ncn2[C@@H]1O[C@H](/C=C/CNC(=O)c2cccc(O)c2O)C(O)C1O (stereo in doubt) [Example 1, N1-{(E)-3-[(3aR,4R,6R,6aR)-5-(6-amino-9H-purin-9-yl)-3,4-dihydroxytetrahydrofuran-2-yl]prop-2-enyl}-2,3-dihydroxy-benzamide]
2 | 28 | Nc1ncnc2c1ncn2[C@@H]1O[C@H](/C=C/CNC(=O)c2cc(Br)cc(O)c2O)C(O)C1O (stereo in doubt) [Example 2, N1-{(E)-3-[(3aR,4R,6R,6aR)-5-(6-amino-9H-purin-9-yl)-3,4-dihydroxytetrahydrofuran-2-yl]prop-2-enyl}-5-bromo-2,3-dihydroxy-benzamide]
3 | 29 | N#Cc1cc(O)c(O)c(C(=O)NC/C=C/[C@H]2O[C@@H](n3cnc4c(N)ncnc43)C(O)C2O)c1 (stereo in doubt) [Example 3, N1-{(E)-3-[(3aR,4R,6R,6aR)-5-(6-amino-9H-purin-9-yl)-3,4-dihydroxytetrahydrofuran-2-yl]prop-2-enyl}-5-cyano-2,3-dihydroxy-benzamide]
4 | 39 | Nc1ncnc2c1ncn2[C@@H]1O[C@H](/C=C/CNC(=O)c2cc(C(=O)C(F)(F)F)cc(O)c2O)C(O)C1O (stereo in doubt) [Example 4, N1-{(E)-3-[(3aR,4R,6R,6aR)-5-(6-amino-9H-purin-9-yl)-3,4-dihydroxytetrahydrofuran-2-yl]prop-2-enyl}-5-(2,2,2-trifluoro-acetyl)-2,3-dihydroxy-benzamide]
5 | 42 | Nc1ncnc2c1ncn2[C@@H]1O[C@H](/C=C/CNC(=O)c2cc(C(=O)c3ccncc3)cc(O)c2O)C(O)C1O (stereo in doubt) [Example 5, N1-{(E)-3-[(3aR,4R,6R,6aR)-5-(6-amino-9H-purin-9-yl)-3,4-dihydroxytetrahydrofuran-2-yl]prop-2-enyl}-5-(pyridine-4-carbonyl)-2,3-dihydroxy-benzamide]
6 | 83 | Nc1ncnc2c1ncn2[C@@H]1O[C@H](/C=C/CNC(=O)c2cc(C(=O)C3CCCCC3)cc(O)c2O)C(O)C1O (stereo in doubt) [Example 6, N1-{(E)-3-[(3aR,4R,6R,6aR)-5-(6-amino-9H-purin-9-yl)-3,4-dihydroxytetrahydrofuran-2-yl]prop-2-enyl}-5-cyclohexanecarbonyl-2,3-dihydroxy-benzamide]
7 | 44 | Nc1ncnc2c1ncn2[C@@H]1O[C@H](/C=C/CNC(=O)c2cc(Cl)cc(O)c2O)C(O)C1O (stereo in doubt) [Example 7, N1-{(E)-3-[(3aR,4R,6R,6aR)-5-(6-amino-9H-purin-9-yl)-3,4-dihydroxytetrahydrofuran-2-yl]prop-2-enyl}-5-chloro-2,3-dihydroxy-benzamide]
8 | 21 | Nc1ncnc2c1ncn2[C@@H]1O[C@H](/C=C/CNC(=O)c2cc(-c3ccc(F)cc3)cc(O)c2O)C(O)C1O (stereo in doubt) [Example 8, N1-{(E)-3-[(3aR,4R,6R,6aR)-5-(6-amino-9H-purin-9-yl)-3,4-dihydroxytetrahydrofuran-2-yl]prop-2-enyl}-5-(4-fluoro-phenyl)-2,3-dihydroxy-benzamide]
9 | 23 | Cc1ccc(-c2cc(O)c(O)c(C(=O)NC/C=C/[C@H]3O[C@@H](n4cnc5c(N)ncnc54)C(O)C3O)c2)cc1 (stereo in doubt) [Example 9, N1-{(E)-3-[(3aR,4R,6R,6aR)-5-(6-amino-9H-purin-9-yl)-3,4-dihydroxytetrahydrofuran-2-yl]prop-2-enyl}-5-p-tolyl-2,3-dihydroxy-benzamide]
10 | 27 | Nc1ncnc2c1ncn2[C@@H]1O[C@H](/C=C/CNC(=O)c2cc(-c3nccs3)cc(O)c2O)C(O)C1O (stereo in doubt) [Example 10, N1-{(E)-3-[(3aR,4R,6R,6aR)-5-(6-amino-9H-purin-9-yl)-3,4-dihydroxytetrahydrofuran-2-yl]prop-2-enyl}-5-thiazol-2-yl-2,3-dihydroxy-benzamide]
11 | 23 | Nc1ncnc2c1ncn2[C@@H]1O[C@H](/C=C/CNC(=O)c2cc(-c3ccncc3)cc(O)c2O)C(O)C1O (stereo in doubt) [Example 12, N1-{(E)-3-[(3aR,4R,6R,6aR)-5-(6-amino-9H-purin-9-yl)-3,4-dihydroxytetrahydrofuran-2-yl]prop-2-enyl}-5-pyridin-4-yl-2,3-dihydroxy-benzamide]
12 | 608 | Cc1ccc(Cc2cc(O)c(O)c(C(=O)NC/C=C/[C@H]3O[C@@H](n4cnc5c(N)ncnc54)C(O)C3O)c2)cc1 (stereo in doubt) [Example 13, N1-{(E)-3-[(3aR,4R,6R,6aR)-5-(6-amino-9H-purin-9-yl)-3,4-dihydroxytetrahydrofuran-2-yl]prop-2-enyl}-5-(4-methyl-benzyl)-2,3-dihydroxy-benzamide]
13 | 2000 | CN(C)C(=O)c1cc(O)c(O)c(C(=O)NC/C=C/[C@H]2O[C@@H](n3cnc4c(N)ncnc43)C(O)C2O)c1 (stereo in doubt) [Example 14, N1-{(E)-3-[(3aR,4R,6R,6aR)-5-(6-amino-9H-purin-9-yl)-3,4-dihydroxytetrahydrofuran-2-yl]prop-2-enyl}-5-dimethylcarbamoyl-2,3-dihydroxy-benzamide]
14 | 97 | CN(C)C(=O)/C=C/c1cc(O)c(O)c(C(=O)NC/C=C/[C@H]2O[C@@H](n3cnc4c(N)ncnc43)C(O)C2O)c1 (stereo in doubt) [Example 15, N1-{(E)-3-[(3aR,4R,6R,6aR)-5-(6-amino-9H-purin-9-yl)-3,4-dihydroxytetrahydrofuran-2-yl]prop-2-enyl}-5-((E)-2-dimethylcarbamoyl-vinyl)-2,3-dihydroxy-benzamide]
15 | 35 | Nc1ncnc2c1ncn2[C@@H]1O[C@H](/C=C/CNC(=O)c2cc(C(F)(F)F)cc(O)c2O)C(O)C1O (stereo in doubt) [Example 16, N1-{(E)-3-[(3aR,4R,6R,6aR)-5-(6-amino-9H-purin-9-yl)-3,4-dihydroxytetrahydrofuran-2-yl]prop-2-enyl}-5-trifluoromethyl-2,3-dihydroxy-benzamide]
16 | 213 | Cc1ccc(S(=O)(=O)c2cc(O)c(O)c(C(=O)NC/C=C/[C@H]3O[C@@H](n4cnc5c(N)ncnc54)C(O)C3O)c2)cc1 (stereo in doubt) [Example 18, N1-{(E)-3-[(3aR,4R,6R,6aR)-5-(6-amino-9H-purin-9-yl)-3,4-dihydroxytetrahydrofuran-2-yl]prop-2-enyl}-5-(toluene-4-sulfonyl)-2,3-dihydroxy-benzamide]
17 | 34 | Cc1ccc(C(=O)c2cc(O)c(O)c(C(=O)NC/C=C/[C@H]3O[C@@H](n4cnc5c(N)ncnc54)C(O)C3O)c2)cc1 (stereo in doubt) [Example 19, N1-{(E)-3-[(3aR,4R,6R,6aR)-5-(6-amino-9H-purin-9-yl)-3,4-dihydroxy-tetrahydrofuran-2-yl]prop-2-enyl}-5-(4-methyl-benzoyl)-2,3-dihydroxy-benzamide]
18 | 9 | Nc1ncnc2c1ncn2C1OC(C=CCNC(=O)c2cc([N+](=O)[O-])cc(O)c2O)C(O)C1O (stereo not drawn) [comparative example, N-{3-[5-(6-Amino-purin-9-yl)-3,4-dihydroxy-tetrahydro-furan-2-yl]-allyl}-2,3-dihydroxy-5-nitro-benzamide, reference compound]

Tested on: not given
Test: not given
Conditions: not given

Row | melting point | Structure (SMILES)
19 | 134 °C (dec.) | Nc1ncnc2c1ncn2[C@@H]1O[C@H](/C=C/CNC(=O)c2cccc(O)c2O)C(O)C1O (stereo in doubt) [Example 1, N1-{(E)-3-[(3aR,4R,6R,6aR)-5-(6-amino-9H-purin-9-yl)-3,4-dihydroxytetrahydrofuran-2-yl]prop-2-enyl}-2,3-dihydroxy-benzamide]
20 | 123 °C (dec.) | Nc1ncnc2c1ncn2[C@@H]1O[C@H](/C=C/CNC(=O)c2cc(Br)cc(O)c2O)C(O)C1O (stereo in doubt) [Example 2, N1-{(E)-3-[(3aR,4R,6R,6aR)-5-(6-amino-9H-purin-9-yl)-3,4-dihydroxytetrahydrofuran-2-yl]prop-2-enyl}-5-bromo-2,3-dihydroxy-benzamide]
21 | 133 to 137 °C (dec.) | Nc1ncnc2c1ncn2[C@@H]1O[C@H](/C=C/CNC(=O)c2cc(-c3ccncc3)cc(O)c2O)C(O)C1O (stereo in doubt) [Example 12, N1-{(E)-3-[(3aR,4R,6R,6aR)-5-(6-amino-9H-purin-9-yl)-3,4-dihydroxytetrahydrofuran-2-yl]prop-2-enyl}-5-pyridin-4-yl-2,3-dihydroxy-benzamide]
